Laboratory results published in US20220305003A1, “METHODS OF TREATING CANCER WITH AN INHIBITOR OF ZNF827” (CHILDREN'S MEDICAL RESEARCH INSTITUTE, priority 2019, published 2022).

Experiments:
panel of 660 cell lines = assay: Drug sensitivity (Sanger GDSC IC50) versus ZNF827 gene expression; format: cell-based; details: natural log of the IC50 from Sanger GDSC v17.3; low log2(TPM) <1 vs normal; Nemenyi test, adjusted p-value<0.05
Procedure: ZNF827 gene expression for the 660 cell lines was plotted on a histogram and grouped by gene expression level, represented as log2(TPM), into “low” (<1), “normal” (>1, <5) and “high” (>5). […] The Nemenyi statistical test was used to test for significant differences between “low” and “normal” ZNF827 expression groups for drug sensitivity for each compound. P-values were then corrected for multiple testing using FDR correction. […] All statistical analysis was performed in R (version 3.6.0), using the “stats” (version 3.6.0) and “PMCMR” (version 4.3) libraries.

ATR-CHK1 pathway = assay: Western blot of ATR downstream effectors (p-CHK1 S345, p-RPA2 S33, pCHK2); format: cell-based; details: U-2 OS; agent alone (topotecan 2 μg/mL 24 hours, aphidicolin 1 μM 20 hours, or siRNA knockdown in unchallenged cells)
Procedure: Protein was extracted from 10^6 cells per sample by vigorous pipetting and incubation at room temperature for 30 minutes in 100 μL of EDTA-free 4× LDS buffer (106 mM Tris-Cl, 141 mM Tris-Base, 40% Glycerol, 2% LDS, 0.075% SERVA Blue G50) supplemented with 2.5% Benzonase® nuclease 25 U/μL (Novagen, Merck Millipore) and 2% beta-mercaptoethanol (Sigma). Following protein extraction, all samples were denatured at 90° C. for 15 minutes before resolving on NuPAGE® Novex® 4-12% Bis-Tris Mini Gels (Invitrogen) with 1×10^5 cells (10 μL) loaded per lane in NuPAGE® MES SDS running buffer (Invitrogen) at 200 V for 50 minutes. Gels were transferred onto a PVDF membrane (Immobilon-P, Millipore) in transfer buffer (190 mM glycine, 25 mM Tris and 10% methanol) at 100 V for 60 minutes. Membranes were stained with Ponceau-S for 30 minutes, de-stained then blocked for 1 hour at room temperature in 5% skim milk dissolved in PBS with 0.1% Tween-20 (PBST) or TBS with 0.1% Tween-20 (TBST) for phosphorylated proteins. Membranes were cut into appropriate segments based on the size markers, with each segment incubated with antibodies for proteins of interest diluted in 0.5% skim milk in PBST/TBST or 5% BSA overnight at 4° C. (Refer to Table 4 for the list of antibodies). Blots were then washed for 3×5 minutes in PBST/TBST followed by incubation for 1 hour at room temperature with appropriate secondary antibodies (See Table 5) diluted 1:5000 in 0.5% skim milk or 5% BSA in PBST/TBST. Blots were washed for 3×5 minutes in PBST/TBST before incubation with SuperSignal West Pico Chemiluminescent Substrate (ThermoFisher Scientific) for 5 minutes at room temperature. Blots were then exposed to a Luminescent Image Analyser (LAS-4000, Fujifilm).
To investigate the precise function of ZNF827 in the ATR pathway, the effect of ZNF827 depletion on the downstream effectors of ATR was examined. To activate ATR, U-2 OS cells were treated with DNA damage and replication stress inducing agents topotecan 2 μg/mL for 24 hours or aphidicolin 1 μM for 20 hours. […] Phosphorylation of CHK2 was not affected by ZNF827 depletion, further supporting that the role of ZNF827 in DNA damage and repair is independent of ATM (FIG. 6d).

Compound | drug sensitivity in cell lines with low ZNF827 compared to cell lines with normal ZNF827 expression (panel of 660 cell lines) | phosphorylation of CHK1 S345 (ATR-CHK1 pathway)
O=c1[nH]c2ccccc2n1C1CCN(Cc2ccc(-c3nc4cc5[nH]cnc5cc4nc3-c3ccccc3)cc2)CC1 [AKT inhibitor VIII] | Increased sensitivity | –
Cc1ccc(NC(=O)c2cccc(C(C)(C)C#N)c2)cc1Nc1ccc2ncn(C)c(=O)c2c1 [AZ628] | Increased sensitivity | –
C=C(c1ccc(C(=O)O)cc1)c1cc2c(cc1C)C(C)(C)CCC2(C)C [Bexarotene] | Increased sensitivity | –
O=C(NOCC1CC1)c1ccc(F)c(F)c1Nc1ccc(I)cc1Cl [CI-1040] | Increased sensitivity | –
Cc1ccc(-c2c(C(=O)CF)n(CCCO)c3ncnc(N)c23)cc1 [FMK] | Increased sensitivity | –
Nc1[nH]nc2nnc(-c3c(-c4ccccc4)nn4ccccc34)cc12 [FR-180204] | Increased sensitivity | –
Cn1cc(/C=C2\C(=O)Nc3cccnc32)c2ccccc21 [GW441756] | Increased sensitivity | –
CCNC(=O)C[C@@H]1N=C(c2ccc(Cl)cc2)c2cc(OC)ccc2-n2c(C)nnc21 [I-BET-762] | Increased sensitivity | –
Cc1ccc(NC(=O)c2ccc(CN3CCN(C)CC3)cc2)cc1Nc1nccc(-c2cccnc2)n1 [Imatinib] | Increased sensitivity | –
O=C(N[C@@H](COc1ccc2[nH]c(=O)[nH]c2c1)c1ccccc1)c1cccn(Cc2ccc(F)c(F)c2)c1=O [KIN001-244] | Increased sensitivity | –
COc1cc(C(=O)NC2CCN(C)CC2)ccc1Nc1ncc2c(n1)N(C1CCCC1)C(C)CC(=O)N2C (centres unmarked) [NPK76-II-72-1] | Increased sensitivity | –
Cc1ccc(C(=O)Nc2cccc(C(F)(F)F)c2)cc1Nc1nc(-c2cccnc2)nc2c1cnn2C [NVP-BHG712] | Increased sensitivity | –
Cc1cn(-c2cc(NC(=O)c3ccc(C)c(Nc4nccc(-c5cccnc5)n4)c3)cc(C(F)(F)F)c2)cn1 [Nilotinib] | Increased sensitivity | –
O=C(Nc1ccc(OC(F)(F)F)cc1)c1sccc1NCc1ccnc2ccccc12 [OSI-930] | Increased sensitivity | –
O=C(NOC[C@H](O)CO)c1ccc(F)c(F)c1Nc1ccc(I)cc1F [PD0325901] | Increased sensitivity | –
[H]/N=C(/N)N/C(=N/[H])NCCc1ccccc1 [Phenformin] | Increased sensitivity | –

Compound | drug sensitivity in cell lines with low ZNF827 compared to cell lines with normal ZNF827 expression (panel of 660 cell lines) | phosphorylation of CHK1 S345 (ATR-CHK1 pathway)
CC1(C)CC(=O)c2c(C(F)(F)F)nn(-c3ccc(C(N)=O)c(N[C@H]4CC[C@H](O)CC4)c3)c2C1 [SNX-2112] | Increased sensitivity | –
CCN(CC)CCNC(=O)c1c(C)[nH]c(/C=C2\C(=O)Nc3ccc(F)cc32)c1C.O=C(O)C[C@H](O)C(=O)O [Sunitib] | Increased sensitivity | –
O=S(=O)(c1ccccc1)N(CC(F)(F)F)c1ccc(C(O)(C(F)(F)F)C(F)(F)F)cc1 [T0901317] | Increased sensitivity | –
CCc1nc(-c2cccc(C)c2)c(-c2ccnc(NC(=O)c3ccccc3)c2)s1 [TAK-715] | Increased sensitivity | –
CN(C)C/C=C/C(=O)Nc1ccc(C(=O)Nc2cccc(Nc3ncc(Cl)c(-c4c[nH]c5ccccc45)n3)c2)cc1 [THZ-2-102-1] | Increased sensitivity | –
CC/C(=C(\c1ccccc1)c1ccc(OCCN(C)C)cc1)c1ccccc1 [Tamoxifen] | Increased sensitivity | –
CC1=C(/C=C/C(C)=C/C=C/C(C)=C/C(=O)O)C(C)(C)CCC1 [Tretinoin] | Increased sensitivity | –
CCCC(=O)OCc1ccc(OC(=O)/C=C(C)/C=C/C=C(C)/C=C/C2=C(C)CCCC2(C)C)cc1 [VNLG-124] | Increased sensitivity | –
NC(=O)c1ccc(N(C(N)=O)c2c(F)cccc2F)nc1-c1ccc(F)cc1F [VX-702] | Increased sensitivity | –
O=C(CCCCCCC(=O)Nc1ccccc1)NO [Vorinostat] | Increased sensitivity | –
C[C@@]1(CO)[C@H](O)CC[C@@]2(C)[C@H]1CC[C@H]1C[C@@H]3C[C@@]12CC[C@]3(O)CO [aphidicolin] | – | became phosphorylated at S345
KIN001-236 | Increased sensitivity | –
KIN001-260 | Increased sensitivity | –
THZ-2-49 | Increased sensitivity | –
TL-1-85 | Increased sensitivity | –
TL-2-105 | Increased sensitivity | –
